Test results from patent US6680054B1 (priority 1996, dated 2004).
Where two headings read alike, the source gives them in different places.

How the values were obtained:
influenza A virus = type: cell-based
[1] = target: whole virus influenza neuraminidase, A/NWS/Tokyo/3/67/H1N2 (Influenza A virus, UniProt P06820); type: biochemical; details: read-out: inhibition constants (IC50), NWS/Tokyo
[2] = tested on: influenza strain X-31 (H3N2); type: cell-based
influenza strain Tokyo A = type: cell-based

whole virus influenza neuraminidase, A/NWS/Tokyo/3/67/H1N2, sequence (P06820 whole entry, looked up): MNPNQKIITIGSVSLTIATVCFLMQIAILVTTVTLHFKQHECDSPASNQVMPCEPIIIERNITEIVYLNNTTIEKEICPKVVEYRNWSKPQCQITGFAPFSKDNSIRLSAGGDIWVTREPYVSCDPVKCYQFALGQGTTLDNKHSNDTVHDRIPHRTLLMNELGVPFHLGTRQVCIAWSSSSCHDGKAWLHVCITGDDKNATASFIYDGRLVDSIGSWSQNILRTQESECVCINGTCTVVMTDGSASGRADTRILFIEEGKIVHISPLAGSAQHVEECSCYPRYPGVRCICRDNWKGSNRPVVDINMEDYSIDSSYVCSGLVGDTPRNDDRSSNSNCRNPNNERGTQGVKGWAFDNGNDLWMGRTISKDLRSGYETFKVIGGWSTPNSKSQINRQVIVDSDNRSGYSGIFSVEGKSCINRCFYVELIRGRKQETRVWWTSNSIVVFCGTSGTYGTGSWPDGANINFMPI

Compound | ID50, minimum compound concentration that inhibits cytopathic effect by 50% (influenza A virus) [µg/mL] | MTC, minimum cytotoxic drug concentration (MDCK cells) | MTC, minimum cytotoxic drug concentration (MDCK cells; dog) | further results
7-{6′-{6″-[6″′-(6″″-(6′″″-aminocaproyl)-aminocaproyl)-aminocaproyl]-aminocaproyl}-aminohexyl-carbamoyl-oxy-4-guanidino-Neu5Ac2en [Compound 2c] | 3.0 | >100 | – | –
CC(=O)N[C@H]1[C@H]([C@H](O)[C@H](O)CO)OC(C(=O)O)=C[C@@H]1O [DANA, 2-deoxy-2,3-didehydro-N-acetylneuraminic acid] | – | – | – | IC50 [1]: 6 µM
CC(=O)NC1C(NC(=N)N)C=C(C(=O)O)OC1[C@H](O)[C@H](O)CO (stereo partly shown) [GG167, 4-guanidino-Neu5Ac2en] | <0.32 | – | >100 | –
NC(=O)c1ncn([C@@H]2O[C@H](CO)[C@@H](O)[C@H]2O)n1 [Ribavirin] | 1.0 to 2.6 | – | >32 | –
Fetuin | – | – | – | Lowest Concentration (μM of GG167 units) that Inhibited Agglutination, X-31 [2]: <0.48 µM; Lowest Concentration (μM of GG167 units) that Inhibited Agglutination, TOKYO (influenza strain Tokyo A): 5.86 µM
Polyacrylamide | – | >100 | – | –
